In brackets after ≈: the same amount, converted by molar mass.
What was measured:
Type in all cases: functional
Sporothrix schenckii = experiment: Antifungal activity against Sporothrix schenckii by spectrophotometric method
Candida parapsilosis = experiment: Antifungal activity against Candida parapsilosis ATCC 22019 by spectrophotometric method; conditions: Lodderomyces parapsilosis
Candida albicans = experiment: Antifungal activity against Candida albicans by spectrophotometric method
[1] = tested on: Trichophyton mentagrophytes; experiment: Antifungal activity against Trichophyton mentagrophytes by spectrophotometric method
Staphylococcus aureus = experiment: Antibacterial activity against Staphylococcus aureus ATCC 25923 by spectrophotometric method
Escherichia coli = experiment: Antibacterial activity against Escherichia coli ATCC 9637 by spectrophotometric method; conditions: W
Aspergillus fumigatus = experiment: Antifungal activity against Aspergillus fumigatus by spectrophotometric method
Klebsiella pneumoniae [2] = experiment: Antibacterial activity against Klebsiella pneumoniae ATCC 27736 by spectrophotometric method
Cryptococcus neoformans = experiment: Antifungal activity against Cryptococcus neoformans by spectrophotometric method
Pseudomonas aeruginosa = experiment: Antibacterial activity against Pseudomonas aeruginosa ATCC BAA-427 by spectrophotometric method
Klebsiella pneumoniae [3] = experiment: Potency index, ratio of amphicillin MIC to compound MIC for Klebsiella pneumoniae ATCC 27736
Klebsiella pneumoniae [4] = experiment: Potency index, ratio of gentamicin MIC to compound MIC for Klebsiella pneumoniae ATCC 27736

| Molecule | MIC (Sporothrix schenckii) [µg/mL] | MIC (Candida parapsilosis) [µg/mL] | MIC (Candida albicans) [µg/mL] | MIC [1] [µg/mL] | MIC (Staphylococcus aureus) [µg/mL] | MIC (Escherichia coli) [µg/mL] | MIC (Aspergillus fumigatus) [µg/mL] | MIC (Klebsiella pneumoniae [2]) [µg/mL] | MIC (Cryptococcus neoformans) [µg/mL] | MIC (Pseudomonas aeruginosa) [µg/mL] | Ratio (Klebsiella pneumoniae [3]) | Ratio (Klebsiella pneumoniae [4]) |
| --- | --- | --- | --- | --- | --- | --- | --- | --- | --- | --- | --- | --- |
| CCOC(=O)[C@]1(C#N)[C@@H](c2c(F)cccc2Cl)CN(C)[C@@]12C(=O)Nc1ccc(Cl)cc12 | 50 (≈ 108 µM) | 50 (≈ 108 µM) | 50 (≈ 108 µM) | 50 (≈ 108 µM) | > 50 | > 50 | 50 (≈ 108 µM) | 25 (≈ 54.1 µM) | 50 (≈ 108 µM) | > 50 | – | – |
| CCOC(=O)[C@]1(C#N)[C@@H](c2cccs2)C2CSCN2[C@@]12C(=O)Nc1ccccc12 (some centres not stated) | > 50 | > 50 | > 50 | 50 (≈ 117 µM) | > 50 | > 50 | > 50 | 0.09 (≈ 0.211 µM) | > 50 | > 50 | – | – |
| CCOC(=O)[C@]1(C#N)[C@@H](c2c(F)cccc2Cl)CN(C)[C@@]12C(=O)Nc1c(C)cc(C)cc12 | 25 (≈ 54.8 µM) | 50 (≈ 110 µM) | 50 (≈ 110 µM) | 12.5 (≈ 27.4 µM) | 12.5 (≈ 27.4 µM) | > 50 | 25 (≈ 54.8 µM) | 3.12 (≈ 6.84 µM) | 50 (≈ 110 µM) | > 50 | – | – |
| CN1C[C@H](c2ccc(Cl)c(Cl)c2)C(C#N)(C#N)[C@]12C(=O)Nc1ccc(Cl)cc12 | 50 (≈ 116 µM) | > 50 | > 50 | > 50 | > 50 | > 50 | > 50 | 6.25 (≈ 14.5 µM) | > 50 | > 50 | – | – |
| CCOC(=O)[C@]1(C#N)[C@@H](c2ccc(Cl)c(Cl)c2)CN(C)[C@@]12C(=O)Nc1c(C)cc(C)cc12 | > 50 | > 50 | > 50 | 50 (≈ 106 µM) | > 50 | > 50 | > 50 | 6.25 (≈ 13.2 µM) | > 50 | > 50 | – | – |
| CCOC(=O)[C@]1(C#N)[C@@H](c2c(F)cccc2Cl)CN(C)[C@@]12C(=O)Nc1ccc([N+](=O)[O-])cc12 | > 50 | 50 (≈ 106 µM) | 50 (≈ 106 µM) | > 50 | > 50 | > 50 | > 50 | 50 (≈ 106 µM) | 50 (≈ 106 µM) | > 50 | – | – |
| CCOC(=O)[C@]1(C#N)[C@@H](c2ccc(OC)cc2)CN(C)[C@@]12C(=O)Nc1c(C)cc(C)cc12 | > 50 | > 50 | > 50 | 50 (≈ 115 µM) | > 50 | > 50 | > 50 | 25 (≈ 57.7 µM) | > 50 | > 50 | – | – |
| CC1(C)S[C@@H]2[C@H](NC(=O)[C@H](N)c3ccccc3)C(=O)N2[C@H]1C(=O)O [AMPICILLIN] | – | – | – | – | 0.19 (≈ 0.544 µM) | 50 (≈ 143 µM) | – | 0.39 (≈ 1.12 µM) | – | 50 (≈ 143 µM) | – | – |
| N#CC1(C#N)[C@@H](c2ccc(Cl)c(Cl)c2)C2CSCN2[C@@]12C(=O)Nc1ccccc12 (some centres not stated) | > 50 | > 50 | > 50 | 50 (≈ 113 µM) | > 50 | > 50 | > 50 | 0.005 (≈ 0.0113 µM) | > 50 | > 50 | 78 | 156 |
| GENTAMICIN | – | – | – | – | 0.39 | 0.78 | – | 0.78 | – | 0.78 | – | – |
| CCOC(=O)[C@]1(C#N)[C@@H](c2ccc(Cl)c(Cl)c2)CN(C)[C@@]12C(=O)Nc1ccc(Cl)cc12 | > 50 | > 50 | > 50 | > 50 | > 50 | > 50 | > 50 | 50 (≈ 104 µM) | > 50 | > 50 | – | – |
| CCOC(=O)[C@]1(C#N)[C@@H](c2ccc(Cl)cc2)CN(C)[C@@]12C(=O)Nc1c(C)cc(C)cc12 | 50 (≈ 114 µM) | 50 (≈ 114 µM) | 50 (≈ 114 µM) | 50 (≈ 114 µM) | 50 (≈ 114 µM) | > 50 | 50 (≈ 114 µM) | 1.56 (≈ 3.56 µM) | 50 (≈ 114 µM) | > 50 | – | – |
| OC(Cn1cncn1)(Cn1cncn1)c1ccc(F)cc1F [FLUCONAZOLE] | 2 (≈ 6.53 µM) | 1 (≈ 3.27 µM) | 1 (≈ 3.27 µM) | 1 (≈ 3.27 µM) | – | – | 2 (≈ 6.53 µM) | – | 0.5 (≈ 1.63 µM) | – | – | – |
| C[C@@H]1[C@H](O)[C@@H](C)/C=C/C=C/C=C/C=C/C=C/C=C/C=C/[C@H](O[C@@H]2O[C@H](C)[C@@H](O)[C@H](N)[C@@H]2O)C[C@@H]2O[C@](O)(C[C@@H](O)C[C@@H](O)[C@H](O)CC[C@@H](O)C[C@@H](O)CC(=O)O[C@H]1C)C[C@H](O)[C@H]2C(=O)O [AMPHOTERICIN B] | 0.12 (≈ 0.13 µM) | 0.12 (≈ 0.13 µM) | 0.06 (≈ 0.0649 µM) | 0.12 (≈ 0.13 µM) | – | – | 0.5 (≈ 0.541 µM) | – | 0.12 (≈ 0.13 µM) | – | – | – |
| N#CC1(C#N)[C@@H](c2cccc([N+](=O)[O-])c2)C2CSCN2[C@@]12C(=O)Nc1ccccc12 (some centres not stated) | > 50 | > 50 | > 50 | > 50 | > 50 | > 50 | > 50 | 0.19 (≈ 0.455 µM) | > 50 | > 50 | – | – |
| CCOC(=O)[C@]1(C#N)[C@@H](c2c(F)cccc2Cl)C2CSCN2[C@@]12C(=O)Nc1ccccc12 (some centres not stated) | > 50 | > 50 | > 50 | 50 (≈ 106 µM) | > 50 | > 50 | > 50 | 0.045 (≈ 0.0954 µM) | > 50 | > 50 | – | – |

Reference: ChEMBL document CHEMBL4024739, “Diversity-oriented sustainable synthesis of antimicrobial spiropyrrolidine/thiapyrrolizidine oxindole derivatives: New ligands for a metallo-β-lactamase from Klebsiella pneumonia” (2017)
